Assay results: patent publication US7488476B2, “B-cell epitope peptides of HSP 65, DNA encoding said peptides, antibodies directed against said peptides and the different uses thereof in the treatment of inflammatory and autoimmune diseases” (priority 1998, dated 2009)

Columns and labels:
rat immunoglobulins [1] = test: ELISA: antibodies of rat sera to Mycobacterial HSP 65 and its peptides; assay type: binding
rat immunoglobulins [2] = test: ELISA: antibodies of rat sera to mammalian HSP 60 and its peptides; assay type: binding
Procedure: (§1) ELISA: Flat-bottomed 96 well plates (Corning) were coated with mammalian HSP 60 or Mycobacterial HSP 65 (10 μg/ml) in carbonate buffer pH 9.6 overnight at 4° C.
After extensive washing with PBS-Tween 0.05% plates were incubated with blocking buffer containing 1% BSA (Sigma) for 60 min. at RT.
(§2) HSP peptides were attached to plates pre-treated with glutaraldehyde according to Kasprzyk et al.. Shortly, plates were coated with 100 μl/well of 5% w/v of glutaraldehyde in PBS for 1 hour at room temp. Plates were washed thoroughly with PBS and peptides (1 μg/100 μl) were added to each well, incubated overnight at 4° C. Plates were shaken dry and blocked with BSA 1% in PBS.
(§3) Plates coated with either HSP or peptides were washed again and incubated with rat sera diluted 1:100 with PBS-Tween 0.01% for 90 min. at room temp. After re-washing the plates were incubated with Goat anti rat IgG or IgM conjugated to alkaline-phosphatase for 60 min. at room temp. […] Optical density was measured photometrically at 405 nm.
Previous studies have shown that certain bacterial HSP peptides may trigger self HSP reactive T-cells with disease suppressive regulatory potential. To analyze the anti self-HSP antibody repertoire of these rats, the reactivity of Ig's from naive and post AA Lewis rats as well as from naive BN rats to whole mammalian HSP 60 was tested by ELISA.
(§4) Immunoglobulins from naive Lewis and BN rats and post-AA Lewis rats were tested for binding to 38 synthetic 20-mer peptides of the mammalian HSP 60 by Dot-Blot. […] Quantitative analysis of this binding as well as the binding of immunoglobulins from four and nine month old Lewis rats confirmed the dot blot findings (Table 3).

rat immunoglobulins [3] = test: Dot-Blot of rat immunoglobulins with synthetic HSP peptides; assay type: binding
Procedure: Dot Blots assay: Antigens were dissolved in PBS and samples of 1 μg were adsorbed on Nitrocellulose paper. The paper was air-dried and incubated with BSA 1% in PBS for 20 min. to block non-specific binding. The samples were then washed in PBS-Tween 0.05% and incubated with rat sera diluted 1:100 in BSA-PBS, for 90 min. at room temp. Samples were washed and incubated with goat anti rat antibody conjugated to alkaline phosphatase diluted 1:1000 in BSA-PBS for 90 min. at RT. After re-washing the color reaction was developed by adding a mixture of BCIP-NBT (Sigma-Fast, Sigma) to the […] for 15 min. The reaction was stopped by the addition of tap water.
To define the epitopes recognized by the anti bacterial HSP antibodies, the inventors tested by Dot-Blot the interaction of immunoglobulins from naive young BN rats and post AA Lewis rats with 90 16-mer synthetic peptides of the Mycobacterial 65 KD HSP. Immunoglobulins from naive young Lewis rats served as control.
as §4

Lewis rats [4] = test: Anti HSP antibodies in Lewis rats immunized with HSP peptides (ELISA); assay type: in vivo, rat; details: 100 μg peptide in PBS, 3 times IP; for Anti HSP Antibodies in Immunized Lewis Rats, Antigen 6: antigen peptide 6; for Anti HSP Antibodies in Immunized Lewis Rats, Antigen 7: antigen peptide 7
Procedure: as §1, §2, §3
Modulation of AA by mycobacterial and mammalian HSP peltides: HSP 65 derived peptides were tested for their ability to modulate the appearance or severity of AA in Lewis rats. Rats were immunized with 100 μg of each peptide in PBS, three weeks (3W), 2W and 1W before induction of AA by MT. Control rats received PBS. Rats were bled for testing antibody presence before injection of MT and 30 days post MT injection.
To test whether active immunization with bacterial or mammalian HSP peptides that are recognized by protective immunoglobulins can induce protection against AA, Lewis rats were immunized with the mycobacterial peptides 6, 7, 21, 31, 36, 45, 84, that bound antibodies from resistant Lewis rats (“protective” peptides), with some non-reactive mycobacterial HSP 65 peptides: peptide 26 (residues 151-166), 28 (residues 163-178) or peptide 70 (residues 415-430), and with the mammalian peptide 5.
Rats were injected 3 times intraperitoneally (IP), with one week intervals between injections before induction of AA with MT.

Lewis rats [5] = test: Modulation of Adjuvant Arthritis by pre-immunization with HSP peptides; assay type: in vivo, rat; details: 3 IP injections at one week intervals before AA induction with MT, FIG. 4
[6] = BN and post-AA Lewis rats, not naive Lewis rats
[7] = all of the rats immunoglobulins tested

Substance: 59: 16-mer synthetic peptide of Mycobacterial HSP 65, residues 349-364, SEQ ID #15 [Peptide 59]
- Antibodies to Mycobacterial HSP 65 Peptides (rat immunoglobulins [1]; strain BN-6w): + (0.16-0.45 = +)
- Antibodies to Mycobacterial HSP 65 Peptides (rat immunoglobulins [1]; strain Lew-4m): − (<O. 15 = −)
- Antibodies to Mycobacterial HSP 65 Peptides (rat immunoglobulins [1]; strain Lew-6w): − (<O. 15 = −)
- Antibodies to Mycobacterial HSP 65 Peptides (rat immunoglobulins [1]; strain Lew-9m): − (<O. 15 = −)
- Antibodies to Mycobacterial HSP 65 Peptides (rat immunoglobulins [1]; strain Lew-Post AA): +++ (>0.75 = +++)

Substance: 36: 16-mer synthetic peptide of Mycobacterial HSP 65, residues 211-226, SEQ ID #12 [Peptide 36]
- Antibodies to Mycobacterial HSP 65 Peptides (rat immunoglobulins [1]; strain BN-6w): ++ (0.46-0.75 = ++)
- Antibodies to Mycobacterial HSP 65 Peptides (rat immunoglobulins [1]; strain Lew-4m): + (0.16-0.45 = +)
- Antibodies to Mycobacterial HSP 65 Peptides (rat immunoglobulins [1]; strain Lew-6w): − (<O. 15 = −)
- Antibodies to Mycobacterial HSP 65 Peptides (rat immunoglobulins [1]; strain Lew-9m): + (0.16-0.45 = +)
- Antibodies to Mycobacterial HSP 65 Peptides (rat immunoglobulins [1]; strain Lew-Post AA): +++ (>0.75 = +++)

Substance: HSP 65: Recombinant HSP 65 of Mycobacterium Tuberculosis
- Antibodies to Mycobacterial HSP 65 Peptides (rat immunoglobulins [1]; strain BN-6w): +++ (>0.75 = +++)
- Antibodies to Mycobacterial HSP 65 Peptides (rat immunoglobulins [1]; strain Lew-4m): − (<O. 15 = −)
- Antibodies to Mycobacterial HSP 65 Peptides (rat immunoglobulins [1]; strain Lew-6w): − (<O. 15 = −)
- Antibodies to Mycobacterial HSP 65 Peptides (rat immunoglobulins [1]; strain Lew-9m): + (0.16-0.45 = +)
- Antibodies to Mycobacterial HSP 65 Peptides (rat immunoglobulins [1]; strain Lew-Post AA): ++ (0.46-0.75 = ++)

Substance: M 30: 20-mer synthetic peptide of the mammalian HSP 60, residues 436-455 (IVLGGGCALLRCIPALDSLK)
- Antibodies to Mammalian HSP 60 Peptides (rat immunoglobulins [2]; strain BN-6w): + (0.16-0.45 = +)
- Antibodies to Mammalian HSP 60 Peptides (rat immunoglobulins [2]; strain Lew-4m): − (<O. 15 = −)
- Antibodies to Mammalian HSP 60 Peptides (rat immunoglobulins [2]; strain Lew-6w): − (<O. 15 = −)
- Antibodies to Mammalian HSP 60 Peptides (rat immunoglobulins [2]; strain Lew-9m): ++ (0.46-0.75 = ++)
- Antibodies to Mammalian HSP 60 Peptides (rat immunoglobulins [2]; strain Lew-Post AA): ++ (0.46-0.75 = ++)
- reaction with immunoglobulins in Dot-Blot (rat immunoglobulins [3]; [6]): reacted

Substance: 45: 16-mer synthetic peptide of Mycobacterial HSP 65, residues 265-280, SEQ ID #14 [Peptide 45]
- Antibodies to Mycobacterial HSP 65 Peptides (rat immunoglobulins [1]; strain BN-6w): + (0.16-0.45 = +)
- Antibodies to Mycobacterial HSP 65 Peptides (rat immunoglobulins [1]; strain Lew-4m): + (0.16-0.45 = +)
- Antibodies to Mycobacterial HSP 65 Peptides (rat immunoglobulins [1]; strain Lew-6w): − (<O. 15 = −)
- Antibodies to Mycobacterial HSP 65 Peptides (rat immunoglobulins [1]; strain Lew-9m): + (0.16-0.45 = +)
- Antibodies to Mycobacterial HSP 65 Peptides (rat immunoglobulins [1]; strain Lew-Post AA): ++ (0.46-0.75 = ++)

Substance: 31: 16-mer synthetic peptide of Mycobacterial HSP 65, residues 181-196, SEQ ID #11 [Peptide 31]
- Antibodies to Mycobacterial HSP 65 Peptides (rat immunoglobulins [1]; strain BN-6w): + (0.16-0.45 = +)
- Antibodies to Mycobacterial HSP 65 Peptides (rat immunoglobulins [1]; strain Lew-4m): − (<O. 15 = −)
- Antibodies to Mycobacterial HSP 65 Peptides (rat immunoglobulins [1]; strain Lew-6w): − (<O. 15 = −)
- Antibodies to Mycobacterial HSP 65 Peptides (rat immunoglobulins [1]; strain Lew-9m): ++ (0.46-0.75 = ++)
- Antibodies to Mycobacterial HSP 65 Peptides (rat immunoglobulins [1]; strain Lew-Post AA): ++ (0.46-0.75 = ++)

Substance: 21: 16-mer synthetic peptide of Mycobacterial HSP 65, residues 121-136, SEQ ID #10 [Peptide 21]
- Antibodies to Mycobacterial HSP 65 Peptides (rat immunoglobulins [1]; strain BN-6w): − (<O. 15 = −)
- Antibodies to Mycobacterial HSP 65 Peptides (rat immunoglobulins [1]; strain Lew-4m): − (<O. 15 = −)
- Antibodies to Mycobacterial HSP 65 Peptides (rat immunoglobulins [1]; strain Lew-6w): − (<O. 15 = −)
- Antibodies to Mycobacterial HSP 65 Peptides (rat immunoglobulins [1]; strain Lew-9m): − (<O. 15 = −)
- Antibodies to Mycobacterial HSP 65 Peptides (rat immunoglobulins [1]; strain Lew-Post AA): + (0.16-0.45 = +)
- reaction with immunoglobulins in Dot-Blot (rat immunoglobulins [3]; Lewis rats immunized with CFA): reacted

Substance: TVIIEQSWGSPKVTKDGVTV (listed as Rattus norvegicus) [Peptide R5, mammalian HSP 60 peptide, residues 61-80]
- Antibodies to Mammalian HSP 60 Peptides (rat immunoglobulins [2]; strain BN-6w): + (0.16-0.45 = +)
- Antibodies to Mammalian HSP 60 Peptides (rat immunoglobulins [2]; strain Lew-4m): − (<O. 15 = −)
- Antibodies to Mammalian HSP 60 Peptides (rat immunoglobulins [2]; strain Lew-6w): − (<O. 15 = −)
- Antibodies to Mammalian HSP 60 Peptides (rat immunoglobulins [2]; strain Lew-9m): ++ (0.46-0.75 = ++)
- Antibodies to Mammalian HSP 60 Peptides (rat immunoglobulins [2]; strain Lew-Post AA): +++ (>0.75 = +++)
- Anti HSP Antibodies in Immunized Lewis Rats, Antigen M5 (Lewis rats [4]): − (<O. 15 = −)
- Anti HSP Antibodies in Immunized Lewis Rats, Antigen MT-HSP 65 (Lewis rats [4]): + (0.16-0.45 = +)
- Anti HSP Antibodies in Immunized Lewis Rats, Antigen 6 (Lewis rats [4]): + (0.16-0.45 = +)
- Anti HSP Antibodies in Immunized Lewis Rats, Antigen 7 (Lewis rats [4]): − (<O. 15 = −)
- AA disease severity after pre-immunization (Lewis rats [5]): significant suppression of disease severity
- reaction with immunoglobulins in Dot-Blot (rat immunoglobulins [3]; [6]): reacted

Substance: 40: 16-mer synthetic peptide of Mycobacterial HSP 65, residues 236-251, SEQ ID #13 [Peptide 40]
- Antibodies to Mycobacterial HSP 65 Peptides (rat immunoglobulins [1]; strain BN-6w): ++ (0.46-0.75 = ++)
- Antibodies to Mycobacterial HSP 65 Peptides (rat immunoglobulins [1]; strain Lew-4m): + (0.16-0.45 = +)
- Antibodies to Mycobacterial HSP 65 Peptides (rat immunoglobulins [1]; strain Lew-6w): + (0.16-0.45 = +)
- Antibodies to Mycobacterial HSP 65 Peptides (rat immunoglobulins [1]; strain Lew-9m): ++ (0.46-0.75 = ++)
- Antibodies to Mycobacterial HSP 65 Peptides (rat immunoglobulins [1]; strain Lew-Post AA): ++ (0.46-0.75 = ++)
- reaction with immunoglobulins in Dot-Blot (rat immunoglobulins [3]; [7]): reacted

Substance: VVLEKKWGAPTITNDG [Peptide 7]
- Antibodies to Mycobacterial HSP 65 Peptides (rat immunoglobulins [1]; strain BN-6w): + (0.16-0.45 = +)
- Antibodies to Mycobacterial HSP 65 Peptides (rat immunoglobulins [1]; strain Lew-4m): − (<O. 15 = −)
- Antibodies to Mycobacterial HSP 65 Peptides (rat immunoglobulins [1]; strain Lew-6w): − (<O. 15 = −)
- Antibodies to Mycobacterial HSP 65 Peptides (rat immunoglobulins [1]; strain Lew-9m): + (0.16-0.45 = +)
- Antibodies to Mycobacterial HSP 65 Peptides (rat immunoglobulins [1]; strain Lew-Post AA): + (0.16-0.45 = +)
- Anti HSP Antibodies in Immunized Lewis Rats, Antigen M5 (Lewis rats [4]): − (<O. 15 = −)
- Anti HSP Antibodies in Immunized Lewis Rats, Antigen MT-HSP 65 (Lewis rats [4]): + (0.16-0.45 = +)
- Anti HSP Antibodies in Immunized Lewis Rats, Antigen 6 (Lewis rats [4]): + (0.16-0.45 = +)
- Anti HSP Antibodies in Immunized Lewis Rats, Antigen 7 (Lewis rats [4]): − (<O. 15 = −)
- AA disease severity after pre-immunization (Lewis rats [5]): significant suppression of disease severity

Substance: 63: 16-mer synthetic peptide of Mycobacterial HSP 65, residues 373-388, SEQ ID #16 [Peptide 63]
- Antibodies to Mycobacterial HSP 65 Peptides (rat immunoglobulins [1]; strain BN-6w): + (0.16-0.45 = +)
- Antibodies to Mycobacterial HSP 65 Peptides (rat immunoglobulins [1]; strain Lew-4m): + (0.16-0.45 = +)
- Antibodies to Mycobacterial HSP 65 Peptides (rat immunoglobulins [1]; strain Lew-6w): + (0.16-0.45 = +)
- Antibodies to Mycobacterial HSP 65 Peptides (rat immunoglobulins [1]; strain Lew-9m): +++ (>0.75 = +++)
- Antibodies to Mycobacterial HSP 65 Peptides (rat immunoglobulins [1]; strain Lew-Post AA): ++ (0.46-0.75 = ++)
- reaction with immunoglobulins in Dot-Blot (rat immunoglobulins [3]; [7]): reacted

Substance: 84: 16-mer synthetic peptide of Mycobacterial HSP 65, residues 499-514, SEQ ID #17 [Peptide 84]
- Antibodies to Mycobacterial HSP 65 Peptides (rat immunoglobulins [1]; strain BN-6w): − (<O. 15 = −)
- Antibodies to Mycobacterial HSP 65 Peptides (rat immunoglobulins [1]; strain Lew-4m): − (<O. 15 = −)
- Antibodies to Mycobacterial HSP 65 Peptides (rat immunoglobulins [1]; strain Lew-6w): − (<O. 15 = −)
- Antibodies to Mycobacterial HSP 65 Peptides (rat immunoglobulins [1]; strain Lew-9m): − (<O. 15 = −)
- Antibodies to Mycobacterial HSP 65 Peptides (rat immunoglobulins [1]; strain Lew-Post AA): + (0.16-0.45 = +)
- reaction with immunoglobulins in Dot-Blot (rat immunoglobulins [3]; Lewis rats immunized with CFA): reacted
